In patent US20210251963A1, “UREA DERIVATIVES FOR USE IN THE TREATMENT OF SUBJECTS WITH ELEVATED EXPRESSION AND/OR ACTIVITY OF SRPK1” (Scandion Oncology A/S, priority 2018, published 2021):

Key:
Assay in all cases: Premier Screen kinase activity screening (33P ATP filter binding)
Assay type in all cases: biochemical
Conditions in all cases: 10 μM SCO-101, mean of assay duplicates, read-out: Kinase activity (percentage of DMSO control)
IR = molecular target: T1, IR (Homo sapiens, UniProt P06213)
T1 construct: MRC Dundee (screening service)
From the text: (§1) The kinase activity screening was done at MRC in Dundee. The screen was a so-called “Premier Screen” with 140 kinases. More specific information can be found here: http://www.kinase-screen.mrc.ac.uk/services/premier-screen
(§2) The method is based on a radioactive filter binding assay using 33P ATP (Hastie, et al 2006. Nat Protoc. 2006; 1(2):968-71; Bain, et al 2007. Biochem J. 2007 Dec. 15; 408(3):297-315). This method is sensitive, accurate and provides a direct measure of kinase enzyme activity. A concentration of 10 μM SCO-101 was used.
(§3) In the table below, the data is portrayed as the mean percentage activity of assay duplicates and a standard deviation. These percentage activities were calculated in comparison to DMSO controls. 10 μM SCO-101 reduced the activity of SRPK1 to 6% of the DMSO control.

EPH-B1 = molecular target: T2, EPH-B1 (Homo sapiens, UniProt P54762)
T2 construct: purchased MRC in Dundee (Premier Screen service)
From the text: as §1, §2, §3

MST3 = molecular target: T3, MST3 (Homo sapiens, UniProt Q9Y6E0)
T3 construct: purchased MRC in Dundee (Premier Screen service)
From the text: as §1, §2, §3

HIPK2 = molecular target: T4, HIPK2 (Homo sapiens, UniProt Q9H2X6)
T4 construct: purchased MRC in Dundee (Premier Screen service)
From the text: as §1, §2, §3

PKCz = molecular target: T5, PKCz (Homo sapiens, UniProt Q05513)
T5 construct: MRC Dundee (screening service)
T5 sequence (Q05513 whole entry): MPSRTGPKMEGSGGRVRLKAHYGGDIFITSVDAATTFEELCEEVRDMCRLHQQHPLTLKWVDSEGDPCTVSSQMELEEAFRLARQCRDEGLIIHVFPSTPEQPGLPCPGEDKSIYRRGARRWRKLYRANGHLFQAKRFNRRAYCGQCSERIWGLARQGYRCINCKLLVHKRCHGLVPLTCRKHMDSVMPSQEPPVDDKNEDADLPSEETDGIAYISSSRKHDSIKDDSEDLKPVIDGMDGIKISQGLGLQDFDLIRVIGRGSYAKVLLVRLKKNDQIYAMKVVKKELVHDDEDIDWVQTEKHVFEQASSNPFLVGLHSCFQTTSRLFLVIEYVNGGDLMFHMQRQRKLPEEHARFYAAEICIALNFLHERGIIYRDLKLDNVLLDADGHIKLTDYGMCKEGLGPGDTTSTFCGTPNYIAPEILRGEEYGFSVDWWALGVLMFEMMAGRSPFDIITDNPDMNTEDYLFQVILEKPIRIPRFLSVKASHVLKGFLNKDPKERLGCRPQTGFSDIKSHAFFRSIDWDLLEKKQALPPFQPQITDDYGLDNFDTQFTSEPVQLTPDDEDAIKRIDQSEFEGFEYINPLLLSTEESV
From the text: as §1, §2, §3

p38g MAPK = molecular target: T6, p38g MAPK (Homo sapiens, UniProt P53778)
T6 construct: purchased MRC Dundee, Premier Screen (contract screening service)
T6 sequence (P53778 whole entry): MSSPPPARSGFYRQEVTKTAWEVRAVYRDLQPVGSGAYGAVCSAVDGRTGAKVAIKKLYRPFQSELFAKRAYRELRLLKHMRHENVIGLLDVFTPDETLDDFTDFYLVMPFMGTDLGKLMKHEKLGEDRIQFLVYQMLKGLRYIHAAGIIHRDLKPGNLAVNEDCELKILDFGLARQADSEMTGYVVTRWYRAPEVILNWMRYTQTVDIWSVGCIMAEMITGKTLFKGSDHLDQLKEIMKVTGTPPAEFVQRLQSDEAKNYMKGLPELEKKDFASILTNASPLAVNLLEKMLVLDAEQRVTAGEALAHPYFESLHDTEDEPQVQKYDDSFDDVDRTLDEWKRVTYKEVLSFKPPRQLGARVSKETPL
From the text: as §1, §2, §3

PAK2 = molecular target: T7, PAK2 (Homo sapiens, UniProt Q13177)
T7 construct: MRC in Dundee (screening service)
T7 sequence (Q13177 whole entry, species assumed): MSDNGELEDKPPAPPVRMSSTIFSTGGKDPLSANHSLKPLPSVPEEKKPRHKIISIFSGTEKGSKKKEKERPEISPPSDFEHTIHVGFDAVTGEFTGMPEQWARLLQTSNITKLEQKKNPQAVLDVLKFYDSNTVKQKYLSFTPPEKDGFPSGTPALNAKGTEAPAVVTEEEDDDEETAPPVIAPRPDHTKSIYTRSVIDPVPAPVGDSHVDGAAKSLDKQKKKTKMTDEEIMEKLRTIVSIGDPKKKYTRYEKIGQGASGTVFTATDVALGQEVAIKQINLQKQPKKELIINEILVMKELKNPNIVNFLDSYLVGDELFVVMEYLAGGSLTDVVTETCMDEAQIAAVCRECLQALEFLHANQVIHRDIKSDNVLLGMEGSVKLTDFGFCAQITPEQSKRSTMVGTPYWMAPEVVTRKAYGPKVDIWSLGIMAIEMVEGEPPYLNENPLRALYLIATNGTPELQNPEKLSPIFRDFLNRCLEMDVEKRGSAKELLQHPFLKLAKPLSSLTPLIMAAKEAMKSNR
From the text: as §1, §2, §3

PKCγ = molecular target: T8, PKCγ (Homo sapiens, UniProt P05129)
T8 construct: MRC Dundee (screening service)
From the text: as §1, §2, §3

ERK2 = ERK2 (Homo sapiens, UniProt P28482)
From the text: as §1, §2, §3

TTBK2 = molecular target: T9, TTBK2 (Homo sapiens, UniProt Q6IQ55)
T9 construct: purchased MRC Dundee, Premier Screen (contract screening service)
From the text: as §1, §2, §3

TGFBR1 = molecular target: T10, TGFBR1 (Homo sapiens, UniProt P36897)
T10 construct: purchased MRC Dundee, Premier Screen (contract screening service)
From the text: as §1, §2, §3

RSK2 = molecular target: T11, RSK2 (Homo sapiens, UniProt P51812)
T11 construct: purchased MRC in Dundee (Premier Screen service)
From the text: as §1, §2, §3

EPH-A2 = molecular target: T12, EPH-A2 (Homo sapiens, UniProt P29317)
T12 construct: purchased MRC in Dundee (Premier Screen service)
From the text: as §1, §2, §3

SGK1 = molecular target: T13, SGK1 (Homo sapiens, UniProt O00141, S422D)
T13 construct: purchased MRC Dundee, Premier Screen (contract screening service)
T13 sequence (O00141 60-431 S422D limits assumed, species assumed): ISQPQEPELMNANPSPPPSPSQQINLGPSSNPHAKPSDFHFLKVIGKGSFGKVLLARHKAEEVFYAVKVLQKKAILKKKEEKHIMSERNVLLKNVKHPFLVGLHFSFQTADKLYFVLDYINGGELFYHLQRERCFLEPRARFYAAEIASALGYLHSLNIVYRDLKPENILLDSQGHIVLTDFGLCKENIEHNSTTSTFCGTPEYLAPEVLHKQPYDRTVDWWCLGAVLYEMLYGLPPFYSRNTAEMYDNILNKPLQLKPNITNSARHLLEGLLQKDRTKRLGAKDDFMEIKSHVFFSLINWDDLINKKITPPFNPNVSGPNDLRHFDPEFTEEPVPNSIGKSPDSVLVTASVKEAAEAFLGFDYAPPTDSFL
From the text: as §1, §2, §3

PRAK = molecular target: T14, PRAK (Homo sapiens, UniProt Q8IW41)
T14 construct: purchased MRC in Dundee (Premier Screen service)
From the text: as §1, §2, §3

TAK1 = molecular target: T15, TAK1 (Homo sapiens, UniProt O43318)
T15 construct: purchased MRC Dundee, Premier Screen (contract screening service)
From the text: as §1, §2, §3

MINK1 = molecular target: T16, MINK1 (Homo sapiens, UniProt Q8N4C8)
T16 construct: purchased MRC in Dundee (Premier Screen service)
From the text: as §1, §2, §3

MKK1 = MKK1 (Homo sapiens, UniProt Q02750)
From the text: as §1, §2, §3

ROCK 2 = molecular target: T17, ROCK 2 (Rattus norvegicus, UniProt Q62868)
T17 construct: MRC Dundee (screening service)
From the text: as §1, §2, §3

TTBK1 = molecular target: T18, TTBK1 (Homo sapiens, UniProt Q5TCY1)
T18 construct: MRC in Dundee (screening service)
From the text: as §1, §2, §3

SmMLCK = molecular target: T19, SmMLCK (Homo sapiens, UniProt Q15746)
T19 construct: purchased MRC in Dundee (Premier Screen service)
T19 sequence (Q15746 923-1914): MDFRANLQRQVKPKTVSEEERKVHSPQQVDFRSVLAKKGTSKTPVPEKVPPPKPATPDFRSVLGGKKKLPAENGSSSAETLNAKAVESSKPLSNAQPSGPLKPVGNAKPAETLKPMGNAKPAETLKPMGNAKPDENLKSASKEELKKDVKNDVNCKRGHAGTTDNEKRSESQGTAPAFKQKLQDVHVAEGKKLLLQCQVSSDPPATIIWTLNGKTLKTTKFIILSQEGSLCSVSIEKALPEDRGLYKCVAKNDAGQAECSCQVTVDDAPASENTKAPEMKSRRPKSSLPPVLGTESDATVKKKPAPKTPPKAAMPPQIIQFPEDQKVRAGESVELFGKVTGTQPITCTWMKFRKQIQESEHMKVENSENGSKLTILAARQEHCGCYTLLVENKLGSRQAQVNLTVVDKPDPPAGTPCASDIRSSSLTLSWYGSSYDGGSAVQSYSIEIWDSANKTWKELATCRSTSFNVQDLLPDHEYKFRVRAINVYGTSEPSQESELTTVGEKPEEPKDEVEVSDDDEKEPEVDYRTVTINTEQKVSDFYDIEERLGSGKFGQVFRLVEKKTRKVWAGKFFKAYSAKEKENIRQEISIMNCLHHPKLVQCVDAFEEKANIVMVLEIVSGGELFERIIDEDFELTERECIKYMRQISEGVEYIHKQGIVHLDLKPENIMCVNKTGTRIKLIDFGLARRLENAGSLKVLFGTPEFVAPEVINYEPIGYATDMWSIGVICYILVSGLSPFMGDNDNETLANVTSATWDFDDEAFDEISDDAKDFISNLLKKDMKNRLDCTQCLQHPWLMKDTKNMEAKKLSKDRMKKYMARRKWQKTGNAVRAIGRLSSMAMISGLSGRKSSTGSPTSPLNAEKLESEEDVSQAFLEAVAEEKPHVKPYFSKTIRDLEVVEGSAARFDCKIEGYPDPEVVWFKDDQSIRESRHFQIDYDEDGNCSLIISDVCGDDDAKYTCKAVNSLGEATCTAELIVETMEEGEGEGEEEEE
From the text: as §1, §2, §3

DAPK1 = DAPK1 (Homo sapiens, UniProt P53355)
From the text: as §1, §2, §3

EPH-B2 = EPH-B2 (Homo sapiens, UniProt P29323)
Chain of EPH-B2 (P29323 19-1055, species assumed): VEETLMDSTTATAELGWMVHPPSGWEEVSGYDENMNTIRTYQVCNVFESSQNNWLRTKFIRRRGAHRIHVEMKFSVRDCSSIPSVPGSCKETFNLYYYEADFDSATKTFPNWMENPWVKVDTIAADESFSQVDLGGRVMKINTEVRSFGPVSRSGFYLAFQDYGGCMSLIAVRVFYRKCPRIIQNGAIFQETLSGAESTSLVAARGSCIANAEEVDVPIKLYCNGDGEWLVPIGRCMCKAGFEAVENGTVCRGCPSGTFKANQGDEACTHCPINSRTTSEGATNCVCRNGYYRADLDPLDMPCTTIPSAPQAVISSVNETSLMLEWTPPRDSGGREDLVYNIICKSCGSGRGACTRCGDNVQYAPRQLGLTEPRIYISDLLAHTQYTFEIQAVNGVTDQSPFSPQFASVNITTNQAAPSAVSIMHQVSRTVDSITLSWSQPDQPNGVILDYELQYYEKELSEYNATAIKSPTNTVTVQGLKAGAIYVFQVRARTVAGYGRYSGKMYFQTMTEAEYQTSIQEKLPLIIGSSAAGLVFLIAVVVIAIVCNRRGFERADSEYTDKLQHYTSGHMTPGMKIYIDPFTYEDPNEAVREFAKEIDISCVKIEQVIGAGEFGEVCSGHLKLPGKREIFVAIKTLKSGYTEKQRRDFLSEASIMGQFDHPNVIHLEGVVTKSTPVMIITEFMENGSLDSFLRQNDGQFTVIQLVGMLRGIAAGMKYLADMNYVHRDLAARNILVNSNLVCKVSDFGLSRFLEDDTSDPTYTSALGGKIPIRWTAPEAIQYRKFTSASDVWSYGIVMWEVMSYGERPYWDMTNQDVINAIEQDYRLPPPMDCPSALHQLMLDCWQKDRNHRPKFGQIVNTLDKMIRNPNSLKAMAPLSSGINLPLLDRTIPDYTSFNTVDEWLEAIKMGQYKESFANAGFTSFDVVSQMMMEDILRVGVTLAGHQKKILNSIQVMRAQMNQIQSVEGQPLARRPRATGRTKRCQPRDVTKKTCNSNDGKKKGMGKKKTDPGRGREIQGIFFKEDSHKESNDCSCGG
From the text: as §1, §2, §3

PIM3 = molecular target: T20, PIM3 (Homo sapiens, UniProt Q86V86)
T20 construct: purchased MRC in Dundee (Premier Screen service)
From the text: as §1, §2, §3

MAPKAP-K2 = molecular target: T21, MAPKAP-K2 (Homo sapiens, UniProt P49137)
T21 construct: MRC Dundee (screening service)
From the text: as §1, §2, §3

MAP4K3 = MAP4K3 (Homo sapiens, UniProt Q8IVH8)
From the text: as §1, §2, §3

IKKb = molecular target: T22, IKKb (Homo sapiens, UniProt O14920)
T22 construct: MRC Dundee (screening service)
From the text: as §1, §2, §3

IGF-1R = molecular target: T23, IGF-1R (Homo sapiens, UniProt P08069)
T23 construct: purchased MRC in Dundee (Premier Screen service)
From the text: as §1, §2, §3

MLK3 = molecular target: T24, MLK3 (Homo sapiens, UniProt Q16584)
T24 construct: purchased MRC Dundee, Premier Screen (contract screening service)
From the text: as §1, §2, §3

TrkA = molecular target: T25, TrkA (Homo sapiens, UniProt P04629)
T25 construct: purchased MRC in Dundee (Premier Screen service)
From the text: as §1, §2, §3

SYK = molecular target: T26, SYK (Homo sapiens, UniProt P43405)
T26 construct: purchased MRC in Dundee (Premier Screen service)
From the text: as §1, §2, §3

TTK = molecular target: T27, TTK (Homo sapiens, UniProt P33981)
T27 construct: MRC in Dundee (screening service)
T27 sequence (P33981 whole entry, species assumed): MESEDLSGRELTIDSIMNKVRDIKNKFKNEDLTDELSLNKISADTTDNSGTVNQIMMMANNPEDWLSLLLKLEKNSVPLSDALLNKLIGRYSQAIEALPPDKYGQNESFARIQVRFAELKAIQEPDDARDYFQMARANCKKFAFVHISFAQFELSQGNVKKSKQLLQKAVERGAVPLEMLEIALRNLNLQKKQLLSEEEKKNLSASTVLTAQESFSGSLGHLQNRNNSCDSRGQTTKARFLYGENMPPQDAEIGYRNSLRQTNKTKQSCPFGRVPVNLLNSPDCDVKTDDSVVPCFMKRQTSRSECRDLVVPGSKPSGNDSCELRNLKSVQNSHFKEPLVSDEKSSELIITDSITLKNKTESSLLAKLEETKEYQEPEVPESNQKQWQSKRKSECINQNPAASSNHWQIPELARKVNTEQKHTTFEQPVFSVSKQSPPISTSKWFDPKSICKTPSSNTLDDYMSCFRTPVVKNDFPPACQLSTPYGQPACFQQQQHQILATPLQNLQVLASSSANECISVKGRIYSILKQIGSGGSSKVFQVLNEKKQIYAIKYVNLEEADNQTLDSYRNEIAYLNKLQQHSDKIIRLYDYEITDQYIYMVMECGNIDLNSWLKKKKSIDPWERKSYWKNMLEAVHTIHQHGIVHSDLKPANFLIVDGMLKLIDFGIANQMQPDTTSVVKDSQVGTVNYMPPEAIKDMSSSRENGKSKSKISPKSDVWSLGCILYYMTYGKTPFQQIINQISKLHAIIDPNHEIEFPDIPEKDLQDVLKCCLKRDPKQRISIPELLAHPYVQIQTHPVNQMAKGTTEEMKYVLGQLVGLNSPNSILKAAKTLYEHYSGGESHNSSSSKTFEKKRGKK
From the text: as §1, §2, §3

HIPK1 = molecular target: T28, HIPK1 (Homo sapiens, UniProt Q86Z02)
T28 construct: MRC Dundee (screening service)
From the text: as §1, §2, §3

Src = molecular target: T29, Src (Homo sapiens, UniProt P12931)
T29 construct: purchased MRC Dundee, Premier Screen (contract screening service)
From the text: as §1, §2, §3

CLK2 = molecular target: T30, CLK2 (Homo sapiens, UniProt P49760)
T30 construct: MRC in Dundee (screening service)
From the text: as §1, §2, §3

Work on `O=C(Nc1cc(C(F)(F)F)cc(C(F)(F)F)c1)Nc1ccc(Br)cc1-c1nnn[nH]1` [SCO-101] yielded a remaining activity at 10 µM (IR) of 98%, a remaining activity at 10 µM (EPH-B1) of 124% and a remaining activity at 10 µM (MST3) of 135%. For the same compound, the remaining activity at 10 µM (HIPK2) was 139%, the remaining activity at 10 µM (PKCz) was 101% and the remaining activity at 10 µM (p38g MAPK) was 110%. For the same compound, the remaining activity at 10 µM (PAK2) was 83%, the remaining activity at 10 µM (PKCγ) was 97% and the remaining activity at 10 µM (ERK2) was 119%. The remaining activity at 10 µM (TTBK2) was 109%, the remaining activity at 10 µM (TGFBR1) was 111% and the remaining activity at 10 µM (RSK2) was 64%. The remaining activity at 10 µM (EPH-A2) was 60%, the remaining activity at 10 µM (SGK1) was 103% and the remaining activity at 10 µM (PRAK) was 69%. It also gave a remaining activity at 10 µM (TAK1) of 107%, a remaining activity at 10 µM (MINK1) of 173% and a remaining activity at 10 µM (MKK1) of 118%. It also gave a remaining activity at 10 µM (ROCK 2) of 101%, a remaining activity at 10 µM (TTBK1) of 94% and a remaining activity at 10 µM (SmMLCK) of 77%. For the same compound, the remaining activity at 10 µM (DAPK1) was 112%, the remaining activity at 10 µM (EPH-B2) was 117% and the remaining activity at 10 µM (PIM3) was 49%. For the same compound, the remaining activity at 10 µM (MAPKAP-K2) was 100%, the remaining activity at 10 µM (MAP4K3) was 113% and the remaining activity at 10 µM (IKKb) was 99%. The remaining activity at 10 µM (IGF-1R) was 128%, the remaining activity at 10 µM (MLK3) was 110% and the remaining activity at 10 µM (TrkA) was 25%. The remaining activity at 10 µM (SYK) was 62%, the remaining activity at 10 µM (TTK) was 88% and the remaining activity at 10 µM (HIPK1) was 98%. It also gave a remaining activity at 10 µM (Src) of 105% and a remaining activity at 10 µM (CLK2) of 86%.
